Molecules are shown by their SMILES.

T1 sequence (P06756 31-992 limits assumed): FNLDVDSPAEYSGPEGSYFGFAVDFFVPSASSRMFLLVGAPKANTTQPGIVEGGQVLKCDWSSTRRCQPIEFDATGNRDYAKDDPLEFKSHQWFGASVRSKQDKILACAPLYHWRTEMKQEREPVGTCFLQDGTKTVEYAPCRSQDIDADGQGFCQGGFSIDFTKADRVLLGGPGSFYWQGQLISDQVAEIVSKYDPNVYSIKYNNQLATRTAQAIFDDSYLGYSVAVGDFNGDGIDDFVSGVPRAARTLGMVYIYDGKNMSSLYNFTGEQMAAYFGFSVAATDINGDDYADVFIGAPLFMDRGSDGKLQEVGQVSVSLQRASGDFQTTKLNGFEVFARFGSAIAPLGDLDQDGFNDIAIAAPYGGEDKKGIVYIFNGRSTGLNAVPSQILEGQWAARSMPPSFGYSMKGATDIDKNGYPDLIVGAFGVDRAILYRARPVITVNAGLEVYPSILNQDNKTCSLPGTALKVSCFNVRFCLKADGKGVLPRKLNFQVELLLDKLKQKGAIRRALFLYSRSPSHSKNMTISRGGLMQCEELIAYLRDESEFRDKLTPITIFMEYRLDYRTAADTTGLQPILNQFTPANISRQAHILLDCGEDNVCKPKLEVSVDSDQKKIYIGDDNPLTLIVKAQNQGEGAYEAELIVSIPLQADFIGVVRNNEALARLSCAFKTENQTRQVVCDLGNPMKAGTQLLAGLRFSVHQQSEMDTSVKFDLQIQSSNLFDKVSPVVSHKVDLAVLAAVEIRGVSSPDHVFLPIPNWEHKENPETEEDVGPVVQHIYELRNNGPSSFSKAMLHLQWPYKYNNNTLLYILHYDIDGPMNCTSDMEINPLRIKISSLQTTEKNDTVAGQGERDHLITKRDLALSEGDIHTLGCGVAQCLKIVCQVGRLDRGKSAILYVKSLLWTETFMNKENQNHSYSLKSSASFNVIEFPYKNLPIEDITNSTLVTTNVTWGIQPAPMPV
T1 sequence (P18564 22-707 limits assumed): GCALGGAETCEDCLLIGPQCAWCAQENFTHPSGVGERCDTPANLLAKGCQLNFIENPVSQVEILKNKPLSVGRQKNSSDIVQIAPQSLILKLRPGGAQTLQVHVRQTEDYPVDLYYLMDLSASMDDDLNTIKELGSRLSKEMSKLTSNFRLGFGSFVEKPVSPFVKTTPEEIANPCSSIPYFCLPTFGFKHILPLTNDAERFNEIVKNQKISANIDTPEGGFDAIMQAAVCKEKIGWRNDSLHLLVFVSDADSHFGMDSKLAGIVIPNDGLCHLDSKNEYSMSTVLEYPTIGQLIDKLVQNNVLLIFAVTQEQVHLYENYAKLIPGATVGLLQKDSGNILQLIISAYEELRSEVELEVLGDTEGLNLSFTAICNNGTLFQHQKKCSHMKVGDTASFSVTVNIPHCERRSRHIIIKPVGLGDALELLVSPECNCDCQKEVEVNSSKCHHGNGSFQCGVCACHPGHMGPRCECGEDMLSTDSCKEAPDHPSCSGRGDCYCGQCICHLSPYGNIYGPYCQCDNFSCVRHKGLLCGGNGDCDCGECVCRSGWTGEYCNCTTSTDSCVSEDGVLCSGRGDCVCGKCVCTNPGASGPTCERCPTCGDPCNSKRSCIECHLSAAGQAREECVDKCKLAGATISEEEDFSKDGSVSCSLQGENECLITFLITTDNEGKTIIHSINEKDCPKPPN

The test concerns the target T1, human αVβ6 (Homo sapiens, UniProt P06756+P18564).
T1 construct: purchased R & D systems 3817-AV
The experiment in a line: human αVβ6 HTRF binding assay. The settings on record: recombinant human αVβ6 integrin, FITC-conjugated fibronectin. In short, it runs like this: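 Biotinylated recombinant αVβ6 (1.25 nM final) incubated with FITC-fibronectin (5 nM) 1 h at RT, then streptavidin-terbium (0.625 nM) added and incubated overnight at RT in the dark before HTRF read. Buffer: 20 mM Tris pH 7.4, 1 mM MgCl2, 1 mM MnCl2, 0.01% Tween 20, 0.01% BSA.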
Background: TR-FRET usually uses a lanthanide donor and a delayed reading to cut background.
For orientation: IC50 means the point on the concentration scale where inhibition reaches its midpoint. Take `COc1ccc(C(CC(=O)O)c2ncc(CCCc3ccc4c(n3)NCCC4)s2)cc1F` (single isomer, unassigned) [Example 43, 3-(3-Fluoro-4-methoxyphenyl)-3-(5-(3-(5,6,7,8-tetrahydro-1,8-naphthyridin-2-yl)propyl)thiazol-2-yl)propanoic acid]: the IC50 turned out to be 18 nM. The value for `COc1ccc(C(CC(=O)O)c2nc(CCCC3CCc4cccnc4N3)cs2)cn1` (single isomer, unassigned) [Example 154, 3-(6-methoxypyridin-3-yl)-3-(4-(3-(1,2,3,4-tetrahydro-1,8-naphthyridin-2-yl)propyl)thiazol-2-yl)propanoic acid] was 210 nM; that for `COc1ccc(C(CC(=O)O)c2ncc(CCCCc3ccc4c(n3)NCCC4)s2)cc1F` (single isomer, unassigned) [Example 41, (3-Fluoro-4-methoxyphenyl)-3-(5-(4-(5,6,7,8-tetrahydro-1,8-naphthyridin-2-yl)butyl)thiazol-2-yl)propanoic acid] was 5.9 nM; that for `CN(C)C(=O)c1cccc(C(CC(=O)O)c2nc(CCCc3ccc4c(n3)NCCC4)cs2)c1` (single isomer, unassigned) [Example 139, 3-(3-(dimethylcarbamoyl)phenyl)-3-(4-(3-(5,6,7,8-tetrahydro-1,8-naphthyridin-2-yl)propyl)thiazol-2-yl)propanoic acid] was 34 nM.

Consider `Cc1ncc([C@@H](CC(=O)O)n2ccc(CCCc3ccc4c(n3)NCCC4)n2)cn1` [Example 55, (R)-3-(2-Methylpyrimidin-5-yl)-3-(3-(3-(5,6,7,8-tetrahydro-1,8-naphthyridin-2-yl)propyl)-1H-pyrazol-1-yl)propanoic acid], for which the IC50 came out at 900 nM. The value for `COc1ccc(C(CC(=O)O)n2cc(CCCc3ccc4c(n3)NCCC4)cn2)cn1` (racemic) [Example 62, (±)-3-(6-Methoxypyridin-3-yl)-3-(4-(3-(5,6,7,8-tetrahydro-1,8-naphthyridin-2-yl)propyl)-1H-pyrazol-1-yl)propanoic acid] was 170 nM; that for `COc1ccc(C(CC(=O)O)c2nc(CCCC3CCc4cccnc4N3)cs2)cn1` (single isomer, unassigned) [Example 155, 3-(6-methoxypyridin-3-yl)-3-(4-(3-(1,2,3,4-tetrahydro-1,8-naphthyridin-2-yl)propyl)thiazol-2-yl)propanoic acid] was 8.1 nM. Next, `COc1ncc(C(CC(=O)O)n2nccc2CCC[C@H]2CCc3cccnc3N2)cn1` (mixture of isomers) [Example 92, 3-(2-methoxypyrimidin-5-yl)-3-(5-(3-((S)-1,2,3,4-tetrahydro-1,8-naphthyridin-2-yl)propyl)-1H-pyrazol-1-yl)propanoic acid]: 6700 nM. The value for `COc1ccc(C(CC(=O)O)c2cnn(CCCCc3ccc4c(n3)NCCC4)c2)cn1` (racemic) [Example 11, (±)-3-(6-Methoxypyridin-3-yl)-3-(1-(4-(5,6,7,8-tetrahydro-1,8-naphthyridin-2-yl)butyl)-1H-pyrazol-4-yl)propanoic acid] was 100 nM. With `CN(C)C(=O)c1cncc(C(CC(=O)O)n2ccc(CCCc3ccc4c(n3)NCCC4)n2)c1` (racemic) [Example 74, (±)-3-[5-(dimethylcarbamoyl)pyridin-3-yl]-3-{3-[3-(5,6,7,8-tetrahydro-1,8-naphthyridin-2-yl)propyl]-1H-pyrazol-1-yl}propanoic acid], the IC50 worked out at 13 nM.

As to `CN(C)C(=O)c1ccc(C(CC(=O)O)c2nc(CCCc3ccc4c(n3)NCCC4)cs2)cc1` (single isomer, unassigned) [Example 137, 3-(4-(dimethylcarbamoyl)phenyl)-3-(4-(3-(5,6,7,8-tetrahydro-1,8-naphthyridin-2-yl)propyl)thiazol-2-yl)propanoic acid], the half-maximal inhibitory concentration (IC50) stood at 210 nM.

`COc1ncc(C(CC(=O)O)n2ccc(CCCc3ccc4c(n3)NCCC4)n2)cn1` (racemic) [Example 34, (±)-3-(2-Methoxypyrimidin-5-yl)-3-(3-(3-(5,6,7,8-tetrahydro-1,8-naphthyridin-2-yl)propyl)-1H-pyrazol-1-yl)propanoic acid]: the IC50 amounted to 10 nM.

Turning to `COc1ccc(C(CC(=O)O)c2nc(CCCCc3ccc4c(n3)NCCC4)cn2C)cc1F` (single isomer, unassigned) [Example 168, 3-(3-fluoro-4-methoxyphenyl)-3-(1-methyl-4-(4-(5,6,7,8-tetrahydro-1,8-naphthyridin-2-yl)butyl)-1H-imidazol-2-yl)propanoic acid], the IC50 amounted to 91 nM. The value for `COc1ccc(C(CC(=O)O)c2nc(CCCCc3ccc4c(n3)NCCC4)cs2)cc1OC` (single isomer, unassigned) [Example 123, 3-(3,4-dimethoxyphenyl)-3-(4-(4-(5,6,7,8-tetrahydro-1,8-naphthyridin-2-yl)butyl)thiazol-2-yl)propanoic acid] was 180 nM.

Take `Cc1ncc(C(CC(=O)O)c2nc(CCCc3ccc4c(n3)NCCC4)cs2)cn1` (single isomer, unassigned) [Example 149, 3-(2-methylpyrimidin-5-yl)-3-(4-(3-(5,6,7,8-tetrahydro-1,8-naphthyridin-2-yl)propyl)thiazol-2-yl)propanoic acid]: the IC50 turned out to be 7.2 nM. Next, `Cc1ncc([C@@H](CC(=O)O)n2cc(F)c(CCCc3ccc4c(n3)NCCC4)n2)cn1` [Example 114, (R)-3-(4-fluoro-3-(3-(5,6,7,8-tetrahydro-1,8-naphthyridin-2-yl)propyl)-1H-pyrazol-1-yl)-3-(2-methylpyrimidin-5-yl)propanoic acid]: 4800 nM. The value for `COc1ccc(C(CC(=O)O)c2nc(CCCCc3ccc4c(n3)NCCC4)cs2)cn1` (single isomer, unassigned) [Example 13, 3-(6-Methoxypyridin-3-yl)-3-(4-(4-(5,6,7,8-tetrahydro-1,8-naphthyridin-2-yl)butyl)thiazol-2-yl)propanoic acid] was 77 nM; that for `Cc1ncc(C(CC(=O)O)c2nc(CCCc3ccc4c(n3)NCCC4)cs2)cn1` (single isomer, unassigned) [Example 147, 3-(2-methylpyrimidin-5-yl)-3-(4-(3-(5,6,7,8-tetrahydro-1,8-naphthyridin-2-yl)propyl)thiazol-2-yl)propanoic acid] was 1.9 nM; that for `COc1ccc(C(CC(=O)O)c2ncc(CCCc3ccc4c(n3)NCCC4)s2)cn1` (single isomer, unassigned) [Example 20, 3-(6-Methoxypyridin-3-yl)-3-(5-(3-(5,6,7,8-tetrahydro-1,8-naphthyridin-2-yl)propyl)thiazol-2-yl)propanoic acid] was 18 nM. As to `CN(C)C(=O)c1ccc(C(CC(=O)O)c2nc(CCCc3ccc4c(n3)NCCC4)cs2)cc1F` (single isomer, unassigned) [Example 135, 3-(4-(dimethylcarbamoyl)-3-fluorophenyl)-3-(4-(3-(5,6,7,8-tetrahydro-1,8-naphthyridin-2-yl)propyl)thiazol-2-yl)propanoic acid], the IC50 came to 4.9 nM. The value for `COc1ccc(C(CC(=O)O)c2ncc(CCCCc3ccc4c(n3)NCCC4)s2)cn1` (single isomer, unassigned) [Example 18, 3-(6-Methoxypyridin-3-yl)-3-(5-(4-(5,6,7,8-tetrahydro-1,8-naphthyridin-2-yl)butyl)thiazol-2-yl)propanoic acid] was 6.7 nM; that for `COc1ccc(C(CC(=O)O)c2nc(CCCCc3ccc4c(n3)NCCC4)c(C)o2)cc1F` (stereo not shown) [Example 181, 3-(3-fluoro-4-methoxyphenyl)-3-(5-methyl-4-(4-(5,6,7,8-tetrahydro-1,8-naphthyridin-2-yl)butyl)oxazol-2-yl)propanoic acid] was 1060 nM; that for `COc1ccc(C(CC(=O)O)c2nc(CCCCc3ccc4c(n3)NCCC4)cs2)cc1F` (single isomer, unassigned) [Example 36, 3-(3-Fluoro-4-methoxyphenyl)-3-(4-(4-(5,6,7,8-tetrahydro-1,8-naphthyridin-2-yl)butyl)thiazol-2-yl)propanoic acid] was 157 nM. The value for `O=C(O)CC(c1cnc2ccccc2n1)n1ccc(CCCc2ccc3c(n2)NCCC3)n1` (racemic) [Example 28, (±)-3-(Quinoxalin-2-yl)-3-(3-(3-(5,6,7,8-tetrahydro-1,8-naphthyridin-2-yl)propyl)-1H-pyrazol-1-yl)propanoic acid] was 5500 nM; that for `O=C(O)CCCNc1cc(C(CC(=O)O)n2ccc(CCCc3ccc4c(n3)NCCC4)n2)ccn1` (racemic) [Example 76, (±)-4-{[4-(2-carboxy-1-{3-[3-(5,6,7,8-tetrahydro-1,8-naphthyridin-2-yl)propyl]-1H-pyrazol-1-yl}ethyl)pyridin-2-yl]amino}butanoic acid] was 55 nM; that for `COc1ccc(C(CC(=O)O)c2nc(CCCc3ccc4c(n3)NCCC4)cs2)cc1OC` (single isomer, unassigned) [Example 142, 3-(3,4-dimethoxyphenyl)-3-(4-(3-(5,6,7,8-tetrahydro-1,8-naphthyridin-2-yl)propyl)thiazol-2-yl)propanoic acid] was 37 nM.

For `CN(C)C(=O)c1cncc(C(CC(=O)O)n2nccc2CCCc2ccc3c(n2)NCCC3)c1` (racemic) [Example 72, (±)-3-[5-(dimethylcarbamoyl)pyridin-3-yl]-3-{5-[3-(5,6,7,8-tetrahydro-1,8-naphthyridin-2-yl)propyl]-1H-pyrazol-1-yl}propanoic acid], the half-maximal inhibitory concentration (IC50) came to 24 nM. Next, `COc1cc(C(CC(=O)O)n2nccc2CCCc2ccc3c(n2)NCCC3)ccn1` (racemic) [Example 73, (±)-3-(2-methoxypyridin-4-yl)-3-{5-[3-(5,6,7,8-tetrahydro-1,8-naphthyridin-2-yl)propyl]-1H-pyrazol-1-yl}propanoic acid]: 25 nM.

The values are drawn from US11884661B2, “3-substituted propionic acids as αV integrin inhibitors” (BRISTOL-MYERS SQUIBB COMPANY, priority 2016, dated 2024).
